Assay results published in patent publication US9186361B2, “Compounds and compositions for the treatment of parasitic diseases” (Novartis AG, priority 2013, dated 2015).

How the values were obtained:
[1] = tested on: Leishmania donovani axenic amastigote parasites; experiment: Assay for Leishmania proliferation in vitro (axenic amastigotes, Cell TiterGlo); type: cell-based; conditions: 48 h, 2 day incubation, read-out: L. donovani amastigotes EC50
Protocol: Leishmania donovani axenic amastigote parasites are grown at 37° C., 5% CO2 in media made of RPMI 1640, 4 mM L-glutamine, 20% heat inactivated FBS, 100 units/ml of penicillin and 100 μg/ml of streptomycin, 23 μM Folic Acid, 100 μM Adenosine, 22 mM D-glucose, 25 mM MES. The pH of media is adjusted to 5.5 at 37° C. using HCl. 20 μL of media is first dispensed into 384 well plates and […] of the compounds of invention in DMSO are added to the plate wells. At the same time control compounds and DMSO are added to plates to serve as the positive and negative controls, respectively. 40 μL of parasite culture (9600 parasites) are then added to the plate wells. The plates are then placed into incubators. After 2 day incubation, 20 μL of Cell TiterGlo (Promega) is added to the plate wells. The luminescence signal of each well is measured using the Envision reader (Perkin Elmer). The percentage inhibition of 50%, EC50, is calculated for each of the compounds.

[2] = tested on: L. donovani HU3 strain in mouse peritoneal macrophages; experiment: Proliferation of L. donovani in mouse peritoneal macrophages (SybrGreen, high-content imaging); type: cell-based; conditions: Leishmania donovani, Peritoneal macrophage, 120 h; infected mouse peritoneal macrophages, 5 days; read-out: L. donavani Macrophage EC50
Source text: The activity of a compound according to the present invention for inhibition of parasitemai can be assessed by the parasite proliferation assay. The assay measures the increase in the parasite number in the assayed plate well using a DNA intercalating dye, SYBR Green I® dye (INVITROGEN) to stain Leishmania cell nuclei. It is understood that the assays illustrate the invention without in any way limiting the scope of the invention.
L. donovani HU3 strain is propagated by infecting BALBc mice through tail vein injection with 10^7 Leishmania parasites. Infected mice are allowed to develop infection during 9-11 weeks post-infection. During this time, the parasites accumulate in the infected mouse spleens to large numbers, and the infected mice serve as the source of parasites for the in vitro measurement of compound efficacies. To assay a compound for anti-leishmanial activity, peritoneal macrophages isolated from non-infected BALBc mice are seeded into 384-well plates at density 2×10^4 macrophages per well in 25 mL of medium (RPMI1640, 10% fetal serum albumin, 10 mM HEPES, 1 mM sodium pyruvate, 1% Pen/Strep). Subsequently, the seeded plates are placed into an incubator set to maintain 37° C. temperature and atmosphere with 5% CO2. The next day, Leishmania parasites are isolated from the spleens of mice infected for 9-11 weeks and 4×10^5 isolated parasites in […] of the above media are added to each plate well. Plates are then returned into incubators and infection is allowed to proceed for 24 hours. After the infection of macrophages is completed, […] of compounds of the invention in the above medium, which also contains 5% DMSO, are added to plate wells containing infected macrophages. At the same time control compounds (miltefosine and amphotericin B) and DMSO are added to plates to serve as the positive and negative controls, respectively. After the compound addition, the plates are returned into incubator and cells infected with parasites are cultured for 5 days. At the end of cultivation, […] of 8% paraformaldehyde is added to plate wells and incubated for 15 min at room temperature. Following the incubation, the paraformaldehyde from plate wells is aspirated, and […] of PBS containing 0.2% Triton X-100 is added to wells. After 15 min incubation, the solution is aspirated from wells again, and replaced with SybrGreen Dye solution in PBS (1:125,000 dilution). Infected cells are imaged with Evotec Opera high-content microscope, and the number of parasites in well is determined by counting parasite nuclei visualized by staining with SybrGreen dye. The percentage inhibition of 50%, EC50, is calculated for each compound.
The inhibitory efficacy of the compounds of the invention against proliferation of L. donovani in mouse peritoneal macrophages is provided in Table I.

SMILES	EC50 [1] [µM]	EC50 [2] [µM]
Cc1cnc(C(=O)Nc2cnc3nc(-c4cc(NC(=O)c5ccco5)ccc4Cl)[nH]c3c2)s1 [Example 1, N-{2-[2-chloro-5-(furan-2-amido)phenyl]-1H-imidazo[4,5-b]pyridin-6-yl}-5-methyl-1,3-thiazole-2-carboxamide]	0.13	0.72
CC(C)OC(=O)Nc1ccc(Cl)c(-c2nc3ncc(NC(=O)OC(C)C)cc3[nH]2)c1 [Example 4, propan-2-yl N-[2-(2-chloro-5-{[(propan-2-yloxy)carbonyl]amino}phenyl)-1H-imidazo[4,5-b]pyridin-6-yl]carbamate]	0.44	0.83
CN(C)c1cnc2nc(-c3cc(NC(=O)c4ccco4)ccc3Cl)[nH]c2c1 [Example 13, N-{4-chloro-3-[6-(dimethylamino)-1H-imidazo[4,5-b]pyridin-2-yl]phenyl}furan-2-carboxamide]	2.35	8.6
Cc1ccc(C(=O)Nc2ccc(Cl)c(-c3nc4ncc(NC(=O)OC(C)C)cc4[nH]3)c2)o1 [Example 17, propan-2-yl N-{2-[2-chloro-5-(5-methylfuran-2-amido)phenyl]-1H-imidazo[4,5-b]pyridin-6-yl}carbamate]	7.6	13.3
CC(C)(N)COC(=O)Nc1cnc2nc(-c3cc(NC(=O)c4ccco4)ccc3Cl)[nH]c2c1 [Example 23, 2-amino-2-methylpropyl N-{2-[2-chloro-5-(furan-2-amido)phenyl]-1H-imidazo[4,5-b]pyridin-6-yl}carbamate]	21	34.1
O=C(Nc1ccc(Cl)c(-c2nc3ncc(NCC4CCNCC4)cc3[nH]2)c1)c1ccco1 [Example 27, N-(4-chloro-3-{6-[(piperidin-4-ylmethyl)amino]-1H-imidazo[4,5-b]pyridin-2-yl}phenyl)furan-2-carboxamide]	> 25	> 50
CC(C)(C)OC(=O)N1CC[C@H](CC(=O)Nc2cnc3nc(-c4cc(NC(=O)c5ccco5)ccc4Cl)[nH]c3c2)C1 [Example 28]	> 25	> 50
Cc1ccc(C(=O)Nc2ccc(Cl)c(-c3nc4ncc(N)cc4[nH]3)c2)o1 [Example 29, N-(3-{6-amino-1H-imidazo[4,5-b]pyridin-2-yl}-4-chlorophenyl)-5-methylfuran-2-carboxamide]	> 25	> 50
CC(C)(N)CNc1cnc2nc(-c3cc(NC(=O)c4ccco4)ccc3Cl)[nH]c2c1 [Example 31, N-(3-{6-[(2-amino-2-methylpropyl)amino]-1H-imidazo[4,5-b]pyridin-2-yl}-4-chlorophenyl)furan-2-carboxamide]	> 25	> 50
O=C(Nc1ccc(Cl)c(-c2nc3ncc(NC(=O)C4(C(F)(F)F)CCC4)cc3[nH]2)c1)c1ccco1 [Example 37, N-[4-chloro-3-(6-{[1-(trifluoromethyl)cyclobutane]amido}-1H-imidazo[4,5-b]pyridin-2-yl)phenyl]furan-2-carboxamide]	0.85	0.53
CN(C)CC(=O)Nc1cnc2nc(-c3cc(NC(=O)c4ccco4)ccc3Cl)[nH]c2c1 [Example 40, N-(4-chloro-3-{6-[2-(dimethylamino)acetamido]-1H-imidazo[4,5-b]pyridin-2-yl}phenyl)furan-2-carboxamide]	> 25	8.5
CN(C)/C=N/c1cnc2nc(-c3cc(NC(=O)c4ccco4)ccc3Cl)[nH]c2c1 [Example 50, N-(4-chloro-3-{6-[(E)-[(dimethylamino)methylidene]amino]-1H-imidazo[4,5-b]pyridin-2-yl}phenyl)furan-2-carboxamide]	6	5.1
CN(C)S(=O)(=O)Nc1cnc2nc(-c3cc(NC(=O)c4ccco4)ccc3Cl)[nH]c2c1 [Example 51, N-(4-chloro-3-{6-[(dimethylsulfamoyl)amino]-1H-imidazo[4,5-b]pyridin-2-yl}phenyl)furan-2-carboxamide]	> 25	8.8
CC(C)S(=O)(=O)Nc1cnc2nc(-c3cc(NC(=O)c4ccc(C#N)o4)ccc3Cl)[nH]c2c1 [Example 60, N-{4-chloro-3-[6-(propane-2-sulfonamido)-1H-imidazo[4,5-b]pyridin-2-yl]phenyl}-5-cyanofuran-2-carboxamide]	2.43	17.9
NC(=O)C1(C(=O)Nc2cnc3nc(-c4cc(NC(=O)c5ccco5)ccc4Cl)[nH]c3c2)CC1 [Example 64, 1-N-{2-[2-chloro-5-(furan-2-amido)phenyl]-1H-imidazo[4,5-b]pyridin-6-yl}cyclopropane-1,1-dicarboxamide]	21.1	> 50
NCCCNc1cnc2nc(-c3cc(NC(=O)c4ccc(F)o4)ccc3Cl)[nH]c2c1 [Example 69, N-(3-{6-[(3-aminopropyl)amino]-1H-imidazo[4,5-b]pyridin-2-yl}-4-chlorophenyl)-5-fluorofuran-2-carboxamide]	> 25	> 50
O=CNc1cnc2nc(-c3cc(NC(=O)c4ccc(F)o4)ccc3Cl)[nH]c2c1 [Example 74, N-(4-chloro-3-{6-formamido-1H-imidazo[4,5-b]pyridin-2-yl}phenyl)-5-fluorofuran-2-carboxamide]	10.8	> 50
CC(C)OC(=O)Nc1cnc2nc(-c3cc(NC(=O)N4CCCC4)ccc3Cl)oc2c1 [Example 75, propan-2-yl N-(2-{2-chloro-5-[(pyrrolidin-1-yl)carbonylamino]phenyl}-[1,3]oxazolo[4,5-b]pyridin-6-yl)carbamate]	0.132	0.166
CC(C)OC(=O)Nc1cnc2nc(-c3cc(NC(=O)c4ccco4)ccc3Cl)oc2c1 [Example 76, propan-2-yl N-(2-{2-chloro-5-[(furan-2-yl)carbonylamino]phenyl}-[1,3]oxazolo[4,5-b]pyridin-6-yl)carbamate]	0.26	0.45
CC(C)S(=O)(=O)Nc1cnc2nc(-c3cccc(NC(=O)c4ccc(F)o4)c3)[nH]c2c1 [Example 77, 5-fluoro-N-{3-[6-(propane-2-sulfonamido)-1H-imidazo[4,5-b]pyridin-2-yl]phenyl}furan-2-carboxamide]	> 25	22.9
